Source: ChEMBL document CHEMBL1134192, “Targeting RNA with peptidomimetic oligomers in human cells” (Bioorg Med Chem Lett, 2001)

Species: Homo sapiens
Assay: Concentration that inhibits transcriptional activation of Tat protein in human cells
Format: functional, cell-based

IC50 [nM] | Compound
500 | N=C(N)NCCC[C@@H](COC(=O)N[C@@H](CCCCN)COC(=O)N[C@@H](CCCCN)COC(=O)N[C@@H](CCCN=C(N)N)COC(=O)N[C@@H](CCCN=C(N)N)COC(=O)N[C@@H](CCC(N)=O)COC(=O)N[C@@H](CCCN=C(N)N)COC(=O)N[C@@H](CCCN=C(N)N)COC(=O)N[C@@H](CCCN=C(N)N)C(=O)O)NC(=O)OCCNC(=O)[C@@H](N)Cc1ccc(O)cc1
1000 | NCCCC[C@H](CNC(=O)N[C@H](CCCCN)CNC(=O)N[C@H](CCCN=C(N)N)CNC(=O)N[C@H](CCCN=C(N)N)CNC(=O)N[C@H](CCC(N)=O)CNC(=O)N[C@H](CCCN=C(N)N)CNC(=O)N[C@H](CCCN=C(N)N)CNC(=O)N[C@H](CCCN=C(N)N)CNC(=O)[C@@H](N)Cc1ccc(O)cc1)NC(=O)NC[C@@H](CCCN=C(N)N)NC(=O)NCCNC(N)=O
